For 1 molecule, TGI results are on record in PubChem BioAssay (NCI).

SMILES strings stand for the structures.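 Method: 48-hour compound exposure of cells in 96-well plates, five concentrations, linear interpolation of endpoints. TGI is the concentration that stops growth completely.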

The test system of the assay is P388/ADR leukemia. Briefly: NCI tumour cell line growth inhibition, 48 h.

For the molecule `Nc1nc(F)nc2c1ncn2C1OC(COP(=O)(O)O)C(O)C1O` (stereo unspecified), the TGI was determined as 160 µM.
